Values joined by “and” are separate entries in the source; they are usually repeats but may differ in a detail not shown here. Identical values can stand only once. Toxic doses and inconclusive results are not listed.
Tested on: BDF1 mice, P388 leukemia ip, median survival T/C
Assay: NCI In Vivo Anticancer Drug Screen. Data for tumor model P388 Leukemia (intraperitoneal) in B6D2F1 (BDF1) mice
Details: endpoint: median survival time, higher = longer survival
In short: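 Steps: implant the tumour, treat one group with compound and another with vehicle, record survival, then divide treated by control.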

[1] = dose: 100.0 mg/kg/injection, schedule: Q01DX009 (ip), vehicle: saline with Tween-80
[2] = dose: 200.0 mg/kg/injection, schedule: Q01DX009 (ip), vehicle: saline with Tween-80
[3] = dose: 50.0 mg/kg/injection, schedule: Q01DX009 (ip), vehicle: saline
[4] = dose: 200.0 mg/kg/injection, schedule: Q01DX009 (ip), vehicle: saline
[5] = dose: 100.0 mg/kg/injection, schedule: Q04DX003 (ip), vehicle: saline with Tween-80
[6] = dose: 200.0 mg/kg/injection, schedule: Q04DX003 (ip), vehicle: saline with Tween-80
[7] = dose: 400.0 mg/kg/injection, schedule: Q01DX009 (ip), vehicle: saline with Tween-80
[8] = dose: 12.5 mg/kg/injection, schedule: Q01DX009 (ip), vehicle: water
[9] = dose: 400.0 mg/kg/injection, schedule: Q04DX003 (ip), vehicle: saline
[10] = dose: 100.0 mg/kg/injection, schedule: Q01DX009 (ip), vehicle: saline
[11] = dose: 50.0 mg/kg/injection, schedule: Q01DX009 (ip), vehicle: saline with Tween-80
[12] = dose: 100.0 mg/kg/injection, schedule: Q01DX009 (ip), vehicle: Klucel (hydroxypropylcellulose) (HPC)
[13] = dose: 200.0 mg/kg/injection, schedule: Q01DX009 (ip), vehicle: Klucel (hydroxypropylcellulose) (HPC)
[14] = dose: 400.0 mg/kg/injection, schedule: Q01DX009 (ip), vehicle: Klucel (hydroxypropylcellulose) (HPC)

In the case of `CC1(C)CC(=O)OC(=O)C1`, the T/C (dose: 3.13 mg/kg/injection, schedule: Q01DX009 (ip), vehicle: saline with Tween-80) is reported as 93 % of control, the T/C (dose: 6.25 mg/kg/injection, schedule: Q01DX009 (ip), vehicle: saline with Tween-80) is reported as 100 % of control and the T/C (dose: 12.5 mg/kg/injection, schedule: Q01DX009 (ip), vehicle: saline with Tween-80) is reported as 95 % of control. For the same molecule, the T/C (dose: 25.0 mg/kg/injection, schedule: Q01DX009 (ip), vehicle: saline with Tween-80) was 105 % of control.

For `Cc1cc(C)c(N)c(Br)c1C`, the T/C [1] was 100 % of control and the T/C [2] was 87 % of control.

`CCCCOC(=O)C1(N)CCCC1` was tested, and the T/C [3] was 104 % of control, the T/C (dose: 150.0 mg/kg/injection, schedule: Q01DX009 (ip), vehicle: saline with Tween-80) was 120 % of control and the T/C [4] was 109 % of control.

For `C[C@H]1[C@H](O)[C@H]2[C@@H](CCC3=CC(=O)CC[C@@]32C)[C@@H]2CC[C@H](O)[C@@]12C`, the T/C [1] was 100 % of control, the T/C [5] was 91 % of control and the T/C [2] was 87 % of control and 100 % of control. The T/C [6] was 95 % of control, the T/C [7] was 87 % of control and 118 % of control and the T/C (dose: 400.0 mg/kg/injection, schedule: Q04DX003 (ip), vehicle: saline with Tween-80) was 91 % of control.

In the case of `CCCCCCCC[N+](C)(CCCCCCCC)CCCCCCCC`, the T/C (dose: 0.12 mg/kg/injection, schedule: Q01DX009 (ip), vehicle: saline) is reported as 108 % of control, the T/C (dose: 0.18 mg/kg/injection, schedule: Q01DX009 (ip), vehicle: saline) is reported as 116 % of control and the T/C (dose: 0.28 mg/kg/injection, schedule: Q01DX009 (ip), vehicle: saline) is reported as 166 % of control. For the same molecule, the T/C (dose: 0.42 mg/kg/injection, schedule: Q01DX009 (ip), vehicle: saline) was 95 % of control and 100 % of control, the T/C (dose: 0.43 mg/kg/injection, schedule: Q01DX009 (ip), vehicle: saline) was 155 % of control and the T/C (dose: 0.96 mg/kg/injection, schedule: Q01DX009 (ip), vehicle: saline) was 108 % of control and 121 % of control. For the same molecule, the T/C (dose: 1.0 mg/kg/injection, schedule: Q01DX009 (ip), vehicle: saline) was 100 % of control, the T/C (dose: 1.3 mg/kg/injection, schedule: Q01DX009 (ip), vehicle: saline) was 112 % of control and the T/C (dose: 2.0 mg/kg/injection, schedule: Q01DX009 (ip), vehicle: saline) was 100 % of control. The T/C (dose: 2.1 mg/kg/injection, schedule: Q01DX009 (ip), vehicle: saline) was 120 % of control, the T/C (dose: 2.32 mg/kg/injection, schedule: Q04DX003 (ip), vehicle: saline) was 104 % of control and the T/C (dose: 3.1 mg/kg/injection, schedule: Q01DX009 (ip), vehicle: saline) was 95 % of control. For the same molecule, the T/C (dose: 4.65 mg/kg/injection, schedule: Q04DX003 (ip), vehicle: saline) was 95 % of control, the T/C (dose: 6.5 mg/kg/injection, schedule: Q01DX001 (ip), vehicle: saline) was 100 % of control and the T/C (dose: 13.0 mg/kg/injection, schedule: Q01DX001 (ip), vehicle: saline) was 100 % of control.

In the case of `CC[N+](CC)(CC)CCCC[N+](CC)(CC)CC`, the T/C [8] is reported as 97 % of control, the T/C (dose: 25.0 mg/kg/injection, schedule: Q01DX009 (ip), vehicle: water) is reported as 95 % of control and the T/C (dose: 25.0 mg/kg/injection, schedule: Q04DX003 (ip), vehicle: water) is reported as 109 % of control. For the same molecule, the T/C (dose: 50.0 mg/kg/injection, schedule: Q01DX009 (ip), vehicle: water) was 100 % of control and the T/C (dose: 50.0 mg/kg/injection, schedule: Q04DX003 (ip), vehicle: water) was 104 % of control.

`O=c1cc(O)cc(/C=C/c2ccc(O)cc2)o1` was tested, and the T/C [1] was 96 % of control, the T/C [2] was 107 % of control and the T/C (dose: 265.0 mg/kg/injection, schedule: Q01DX009 (ip), vehicle: saline with Tween-80) was 90 % of control. The T/C [7] was 98 % of control.

With `Nc1nc(CNc2ccc(Cl)cc2)nc(Nc2ccccc2)n1` the T/C (dose: 100.0 mg/kg/injection, schedule: Q04DX003 (ip), vehicle: saline) was 105 % of control, the T/C (dose: 200.0 mg/kg/injection, schedule: Q04DX003 (ip), vehicle: saline) was 100 % of control and the T/C [9] was 100 % of control.

`C1OC1CO[C@H]1CO[C@H]2[C@@H]1OC[C@H]2OCC1CO1` (stereo not given in full) was tested, and the T/C (dose: 264.0 mg/kg/injection, schedule: Q04DX003 (ip), vehicle: saline) was 160 % of control and 168 % of control and the T/C [9] was 180 % of control.

`O=c1c(O)c(-c2ccc(O)c(O)c2)oc2cc(O)cc(O)c12` was tested, and the T/C (dose: 15.0 mg/kg/injection, schedule: Q01DX009 (ip), vehicle: saline) was 118 % of control, the T/C (dose: 25.0 mg/kg/injection, schedule: Q01DX009 (ip), vehicle: saline) was 108 % of control and the T/C (dose: 30.0 mg/kg/injection, schedule: Q01DX009 (ip), vehicle: saline) was 109 % of control. The T/C [3] was 97 % of control and 112 % of control, the T/C [10] was 102 % of control and 117 % of control and the T/C (dose: 125.0 mg/kg/injection, schedule: Q01DX009 (ip), vehicle: saline) was 118 % of control. For the same molecule, the T/C [4] was 110 % of control and the T/C (dose: 300.0 mg/kg/injection, schedule: Q01DX009 (ip), vehicle: saline) was 97 % of control.

In the case of `COc1cc(/C=C\C(=O)c2ccc(F)cc2)cc(OC)c1OC`, the T/C (dose: 100.0 mg/kg/injection, schedule: Q01DX001 (ip), vehicle: saline with Tween-80) is reported as 98 % of control, the T/C (dose: 200.0 mg/kg/injection, schedule: Q01DX001 (ip), vehicle: saline with Tween-80) is reported as 96 % of control and the T/C (dose: 400.0 mg/kg/injection, schedule: Q01DX001 (ip), vehicle: saline with Tween-80) is reported as 100 % of control.

In the case of `O=C1CC2C3Nc4ccccc4C3CCN2C2=C1CC(OC(=O)c1ccccc1)CC2` (stereo not given), the T/C [11] is reported as 104 % of control, the T/C [1] is reported as 104 % of control and the T/C [2] is reported as 86 % of control.

`C=CC[NH-].C=CC[NH-].CC(=O)CC(C)=O.CC(=O)CC(C)=O.[Ni+2]` was tested, and the T/C (dose: 6.25 mg/kg/injection, schedule: Q04DX002 (ip), vehicle: saline) was 107 % of control, the T/C (dose: 12.5 mg/kg/injection, schedule: Q04DX002 (ip), vehicle: saline) was 100 % of control and the T/C (dose: 25.0 mg/kg/injection, schedule: Q04DX002 (ip), vehicle: saline) was 117 % of control.

With `Cc1c(O)c([N+](=O)[O-])cc2c1OCOC2` the T/C [12] was 95 % of control, the T/C [13] was 104 % of control and the T/C [14] was 95 % of control.

`[NH-]C(CO)C(=O)O.[NH-]C(CO)C(=O)O.[Pd+2]` (stereo not given) was tested, and the T/C [8] was 106 % of control.

`Cc1ccccc1OS(=O)(=O)C(F)(F)C(F)(F)C(F)(F)C(F)(F)F` was tested, and the T/C [3] was 100 % of control, the T/C [10] was 100 % of control and the T/C [4] was 106 % of control.

For `Cc1ccc(CO)cc1C`, the T/C (dose: 50.0 mg/kg/injection, schedule: Q04DX003 (ip), vehicle: saline with Tween-80) was 100 % of control, the T/C [5] was 100 % of control and the T/C [6] was 104 % of control.

`COC(=O)c1c(C)cc(OC(=O)c2c(C)c(Cl)c(O)c(Cl)c2O)cc1O` was tested, and the T/C (dose: 1.25 mg/kg/injection, schedule: Q01DX009 (ip), vehicle: Klucel (hydroxypropylcellulose) (HPC)) was 91 % of control, the T/C (dose: 2.5 mg/kg/injection, schedule: Q01DX009 (ip), vehicle: Klucel (hydroxypropylcellulose) (HPC)) was 114 % of control and the T/C (dose: 5.0 mg/kg/injection, schedule: Q01DX009 (ip), vehicle: Klucel (hydroxypropylcellulose) (HPC)) was 101 % of control. The T/C (dose: 10.0 mg/kg/injection, schedule: Q01DX009 (ip), vehicle: Klucel (hydroxypropylcellulose) (HPC)) was 108 % of control and the T/C (dose: 20.0 mg/kg/injection, schedule: Q01DX009 (ip), vehicle: Klucel (hydroxypropylcellulose) (HPC)) was 97 % of control.

`CN(C)/N=C1\C(=O)N(CCCl)c2cc(Cl)c(Cl)cc21` was tested, and the T/C [11] was 97 % of control, the T/C [1] was 99 % of control and the T/C [2] was 90 % of control.

With `CCCNC(=O)OCC#CC#CCOC(=O)NCCC` the T/C [12] was 86 % of control, the T/C (dose: 100.0 mg/kg/injection, schedule: Q04DX003 (ip), vehicle: Klucel (hydroxypropylcellulose) (HPC)) was 90 % of control and the T/C [13] was 100 % of control. For the same molecule, the T/C (dose: 200.0 mg/kg/injection, schedule: Q04DX003 (ip), vehicle: Klucel (hydroxypropylcellulose) (HPC)) was 95 % of control, the T/C [14] was 104 % of control and the T/C (dose: 400.0 mg/kg/injection, schedule: Q04DX003 (ip), vehicle: Klucel (hydroxypropylcellulose) (HPC)) was 113 % of control.

`C1CSCCO1.[Cu+2].[O-][Cl+3]([O-])([O-])O` was tested, and the T/C (dose: 6.25 mg/kg/injection, schedule: Q04DX003 (ip), vehicle: saline with Tween-80) was 97 % of control, the T/C (dose: 12.5 mg/kg/injection, schedule: Q04DX003 (ip), vehicle: saline with Tween-80) was 99 % of control and the T/C (dose: 25.0 mg/kg/injection, schedule: Q04DX003 (ip), vehicle: saline with Tween-80) was 108 % of control.

With `Cc1ccc(S(=O)(=O)NC(=O)C2C(=O)CC3(CCCCC3)CC2=O)cc1` the T/C (dose: 50.0 mg/kg/injection, schedule: Q01DX009 (ip), vehicle: Klucel (hydroxypropylcellulose) (HPC)) was 109 % of control and the T/C [12] was 118 % of control.

From PubChem BioAssay AID328 (DTP/NCI, 2004)
